Results on five molecules are retold here after patent publication US20210094954A1, “PREPARATION METHODS AND APPLICATIONS OF 3,5-DISUBSTITUTED METHYLPYRAZOLO[1,5-A]PYRIMIDINE-7-HYDROXYLIC SALTS” (priority 2019, published 2021).

Common to all, as to type: cell-based
The subject of experiment [1] is Staphylococcus aureus 43300(MRSA). Nature of the experiment: microbe, parasite or virus in culture. The settings on record: for MIC: Staphylococcus aureus, MRSA, 24 h, read-out: MIC values of in vitro antibacterial test results.
The test system of experiment [2] is Enterococcus faecalis 29212. Briefly: microbe, parasite or virus in culture. The settings on record: 37° C., 24 hours; for MIC: Enterococcus faecalis, 29212, read-out: MIC values of in vitro antibacterial test results.
The test system of another experiment is Diphtheria bacilli. Briefly: organism not typed. To be noted: 37° C., 24 hours; for MIC: read-out: MIC values of in vitro antibacterial test results.
The test system of experiment [3] is Streptococcus pneumoniae M2. Briefly: microbe, parasite or virus in culture. To be noted: 37° C., 24 hours; for MIC: Streptococcus pneumoniae, M2, read-out: MIC values of in vitro antibacterial test results.
A further experiment concerns Clostridium perfringens. Nature of the experiment: microbe, parasite or virus in culture. To be noted: for MIC: Clostridium perfringens, 24 h, read-out: MIC values of in vitro antibacterial test results.
Experiment [4] deals with Streptococcus agalactia B group. Briefly: microbe, parasite or virus in culture. The settings on record: 37° C., 24 hours; for MIC: Streptococcus, read-out: MIC values of in vitro antibacterial test results.
Experiment [5] relates to Streptococcus pneumoniae 10351. Nature of the experiment: microbe, parasite or virus in culture. To be noted: 37° C., 24 hours; for MIC: Streptococcus pneumoniae, 10351, read-out: MIC values of in vitro antibacterial test results.
In experiment [6] the test system is Streptococcus pneumoniae 6303 (PRSP). Nature of the experiment: microbe, parasite or virus in culture. The settings on record: for MIC: Streptococcus pneumoniae, PRSP, 24 h, read-out: MIC values of in vitro antibacterial test results.
The test system of a further experiment is Bacillus cereus 2. Nature of the experiment: microbe, parasite or virus in culture. The settings on record: 37° C., 24 hours; for MIC: Bacillus cereus, 2, read-out: MIC values of in vitro antibacterial test results.
In experiment [7] the test system is Staphylococcus aureus 29231. Nature of the experiment: microbe, parasite or virus in culture. The settings on record: 37° C., 24 hours; for MIC: Staphylococcus aureus, 29231, read-out: MIC values of in vitro antibacterial test results.
Experiment [8] deals with Enterococcus faecalis F2518(VRE). Briefly: microbe, parasite or virus in culture. The settings on record: for MIC: Enterococcus faecalis, VRE, 24 h, read-out: MIC values of in vitro antibacterial test results.
For the next experiment, the system named is Oral Candida. Briefly: microbe, parasite or virus in culture. The settings on record: for MIC: Candida.
Experiment [9] concerns F2518(VRE), Staphylococcus aureus resistant strain 43300(MRSA), 703 (MRSA), pneumococcal resistance bacteria 6303(PRSP). Briefly: microbe, parasite or virus in culture. The settings on record: read-out: MIC values (μM).
The test system of a further experiment is Bacillus subtilis 168. Briefly: microbe, parasite or virus in culture. The settings on record: 37° C., 24 hours; for MIC: Bacillus subtilis, 168, read-out: MIC values of in vitro antibacterial test results.
Experiment [10] relates to Bacillus anthracis Bacillus 1. Briefly: microbe, parasite or virus in culture. The settings on record: for MIC: Bacillus anthracis, 24 h, read-out: MIC values of in vitro antibacterial test results.
Experiment [11] has as its system Staphylococcus aureus 703(MRSA). Briefly: microbe, parasite or virus in culture. The settings on record: for MIC: Staphylococcus aureus, MRSA, 24 h, read-out: MIC values of in vitro antibacterial test results.
A further experiment relates to Peel fungus. Nature of the experiment: organism not typed. To be noted: 37° C., 24 hours; for MIC: read-out: MIC values of in vitro antibacterial test results.
The mark [12] stands for this setting: 37° C., 24 hours, read-out: MIC values of in vitro antibacterial test results.

Molecules are shown by their SMILES. Read-outs that look alike come from different tables or passages of the source.

For `Cc1nn2c([O-])cc(-c3ccc(C(F)(F)F)nc3)nc2c1-c1ccc(F)cc1F.[K+]` [Compound 26, Potassium 3-(2,4-difluorophenyl)-2-methyl-5-(6-(trifluoromethyl)pyridin-3-yl)pyrazolo[1,5-α]pyrimidin-7-olate], the MIC in experiment [1] is less than 100 µg/mL; in [2] it was less than 100 µg/mL; in the experiment with Diphtheria bacilli, greater than 150 µg/mL; in experiment [3], less than 150 µg/mL; with Clostridium perfringens, greater than 150 µg/mL; in [4], less than 150 µg/mL. In addition, the MIC in experiment [5] was less than 150 µg/mL; in experiment [6] it was less than 150 µg/mL; in the experiment on Bacillus cereus 2 it was less than 100 µg/mL; in [7], less than 100 µg/mL; in [8], less than 150 µg/mL; in the experiment on Oral Candida (read-out: MIC values (μM)) it was less than 100 µg/mL. Also, the MIC is less than 100 µg/mL in the experiment on Oral Candida (setting [12]); less than 100 µg/mL in experiment [9]; less than 100 µg/mL in the experiment on Bacillus subtilis 168; greater than 150 µg/mL in experiment [10]; less than 100 µg/mL in experiment [11]; less than 150 µg/mL with Peel fungus.
Consider `Cc1nn2c([O-])cc(-c3ccc([N+](=O)[O-])cc3)nc2c1-c1ccc(F)cc1F.[K+]` [Compound 23, Potassium 3-(2,4-difluorophenyl)-2-methyl-5-(4-nitrophenyl)pyrazolo[1,5-α]pyrimidin-7-olate], for which the MIC in experiment [1] is less than 100 µg/mL; in [2], less than 150 µg/mL; with Diphtheria bacilli it was greater than 150 µg/mL; in [3], less than 100 µg/mL; in the experiment on Clostridium perfringens, greater than 150 µg/mL; in experiment [4] it was greater than 150 µg/mL. For the same molecule, the MIC in experiment [5] is greater than 150 µg/mL; in experiment [6], greater than 150 µg/mL; in the experiment with Bacillus cereus 2 it was less than 100 µg/mL; in [7] it was greater than 150 µg/mL; in experiment [8], less than 150 µg/mL; with Oral Candida (read-out: MIC values (μM)) it was less than 100 µg/mL. The MIC is less than 100 µg/mL in the experiment on Oral Candida (setting [12]); less than 100 µg/mL in experiment [9]; greater than 150 µg/mL with Bacillus subtilis 168; greater than 150 µg/mL in experiment [10]; less than 150 µg/mL in experiment [11]; less than 150 µg/mL with Peel fungus.
With `Cc1nn2c([O-])cc(-c3ccc([N+](=O)[O-])nc3)nc2c1-c1ccc(F)cc1F.[Na+]` [Compound 16, sodium 3-(2,4-difluorophenyl)-2-methyl-5-(6-nitropyridin-3-yl)pyrazolo[1,5-α]pyrimidin-7-olate], the MIC is less than 150 µg/mL in experiment [1]; less than 100 µg/mL in experiment [2]; greater than 150 µg/mL in the experiment with Diphtheria bacilli; less than 150 µg/mL in [3]; greater than 150 µg/mL with Clostridium perfringens; greater than 150 µg/mL in [4]. For the same molecule, the MIC in experiment [5] is less than 100 µg/mL; in [6], less than 100 µg/mL; in the experiment on Bacillus cereus 2, less than 100 µg/mL; in experiment [7], less than 100 µg/mL; in experiment [8], less than 150 µg/mL; in the experiment on Oral Candida (read-out: MIC values (μM)), less than 100 µg/mL. Also, the MIC in the experiment with Oral Candida (setting [12]) is less than 100 µg/mL; in experiment [9], less than 100 µg/mL; in the experiment with Bacillus subtilis 168 it was less than 150 µg/mL; in experiment [10] it was greater than 150 µg/mL; in experiment [11], less than 100 µg/mL; in the experiment on Peel fungus, greater than 150 µg/mL.
As to `Cc1nn2c([O-])cc(-c3ccc([S](=O)(=O)[Na])nc3)nc2c1-c1ccc(F)cc1F.[Na+]` [Compound 28, Disodium 5-(3-(2,4-difluorophenyl)-2-methyl-7-hydroxypyrazolo[1,5-α]pyrimidin-5-yl)pyridine-2-sulfinate], the “MIC values of in vitro antibacterial test results” value (shortened to “MIC values”) in [1] (37° C., 24 hours) is recorded as “+ (key: − represents the MIC value (μM) > 150 μg/mL; + represents the MIC value (μM) < 150 μg/mL; ++ represents the MIC value (μM) < 100 μg/mL; +++ represents the MIC value (μM) < 50 μg/mL)”; in experiment [2] it was “+ (key: − represents the MIC value (μM) > 150 μg/mL; + represents the MIC value (μM) < 150 μg/mL; ++ represents the MIC value (μM) < 100 μg/mL; +++ represents the MIC value (μM) < 50 μg/mL)”; against Diphtheria bacilli, “− (key: − represents the MIC value (μM) > 150 μg/mL; + represents the MIC value (μM) < 150 μg/mL; ++ represents the MIC value (μM) < 100 μg/mL; +++ represents the MIC value (μM) < 50 μg/mL)”; in experiment [3] it was “++ (key: − represents the MIC value (μM) > 150 μg/mL; + represents the MIC value (μM) < 150 μg/mL; ++ represents the MIC value (μM) < 100 μg/mL; +++ represents the MIC value (μM) < 50 μg/mL)”; against Clostridium perfringens (37° C., 24 hours) it was “− (key: − represents the MIC value (μM) > 150 μg/mL; + represents the MIC value (μM) < 150 μg/mL; ++ represents the MIC value (μM) < 100 μg/mL; +++ represents the MIC value (μM) < 50 μg/mL)”; in [4], “− (key: − represents the MIC value (μM) > 150 μg/mL; + represents the MIC value (μM) < 150 μg/mL; ++ represents the MIC value (μM) < 100 μg/mL; +++ represents the MIC value (μM) < 50 μg/mL)”. Further, the “MIC values” value in experiment [5] was “− (key: − represents the MIC value (μM) > 150 μg/mL; + represents the MIC value (μM) < 150 μg/mL; ++ represents the MIC value (μM) < 100 μg/mL; +++ represents the MIC value (μM) < 50 μg/mL)”; in experiment [6] (37° C., 24 hours) it was “− (key: − represents the MIC value (μM) > 150 μg/mL; + represents the MIC value (μM) < 150 μg/mL; ++ represents the MIC value (μM) < 100 μg/mL; +++ represents the MIC value (μM) < 50 μg/mL)”; in the experiment with Bacillus cereus 2, “++ (key: − represents the MIC value (μM) > 150 μg/mL; + represents the MIC value (μM) < 150 μg/mL; ++ represents the MIC value (μM) < 100 μg/mL; +++ represents the MIC value (μM) < 50 μg/mL)”; in experiment [7], “− (key: − represents the MIC value (μM) > 150 μg/mL; + represents the MIC value (μM) < 150 μg/mL; ++ represents the MIC value (μM) < 100 μg/mL; +++ represents the MIC value (μM) < 50 μg/mL)”; in experiment [8] (37° C., 24 hours) it was “+ (key: − represents the MIC value (μM) > 150 μg/mL; + represents the MIC value (μM) < 150 μg/mL; ++ represents the MIC value (μM) < 100 μg/mL; +++ represents the MIC value (μM) < 50 μg/mL)”; with Oral Candida (37° C., 24 hours), “++ (key: − represents the MIC value (μM) > 150 μg/mL; + represents the MIC value (μM) < 150 μg/mL; ++ represents the MIC value (μM) < 100 μg/mL; +++ represents the MIC value (μM) < 50 μg/mL)”. The “MIC values” value against Bacillus subtilis 168 is “− (key: − represents the MIC value (μM) > 150 μg/mL; + represents the MIC value (μM) < 150 μg/mL; ++ represents the MIC value (μM) < 100 μg/mL; +++ represents the MIC value (μM) < 50 μg/mL)”; in experiment [10] (37° C., 24 hours) it was “− (key: − represents the MIC value (μM) > 150 μg/mL; + represents the MIC value (μM) < 150 μg/mL; ++ represents the MIC value (μM) < 100 μg/mL; +++ represents the MIC value (μM) < 50 μg/mL)”; in experiment [11] (37° C., 24 hours) it was “+ (key: − represents the MIC value (μM) > 150 μg/mL; + represents the MIC value (μM) < 150 μg/mL; ++ represents the MIC value (μM) < 100 μg/mL; +++ represents the MIC value (μM) < 50 μg/mL)”; against Peel fungus, “+ (key: − represents the MIC value (μM) > 150 μg/mL; + represents the MIC value (μM) < 150 μg/mL; ++ represents the MIC value (μM) < 100 μg/mL; +++ represents the MIC value (μM) < 50 μg/mL)”.
As for `Cc1nn2c([O-])cc(-c3ccc(S(=O)[O-])cc3)nc2c1-c1ccc(F)cc1F.[Na+].[Na+]` [Compound 8], the MIC in experiment [1] is less than 150 µg/mL; in [2], less than 150 µg/mL; in the experiment with Diphtheria bacilli, greater than 150 µg/mL; in [3], less than 150 µg/mL; in the experiment with Clostridium perfringens, greater than 150 µg/mL; in experiment [4], greater than 150 µg/mL. Also, the MIC was greater than 150 µg/mL in experiment [5]; greater than 150 µg/mL in [6]; less than 150 µg/mL with Bacillus cereus 2; greater than 150 µg/mL in experiment [7]; less than 150 µg/mL in [8]; less than 150 µg/mL with Oral Candida (setting [12]). Further, the MIC is greater than 150 µg/mL in the experiment on Bacillus subtilis 168, greater than 150 µg/mL in experiment [10], less than 150 µg/mL in [11] and less than 150 µg/mL in the experiment with Peel fungus.
